The results in this text go back to patent US20120269790A1, “USE OF PLANT EXTRACTS AS PREBIOTICS, COMPOSITIONS AND FOODS CONTAINING SUCH EXTRACT” (priority 2009, published 2012).

In assay [1] the target is T1, 3-hydroxy-3-methylglutaryl-CoA reductase (HMGR) (Homo sapiens, UniProt P04035).
T1 construct: purchased Sigma
T1 sequence (P04035 426-888 limits assumed): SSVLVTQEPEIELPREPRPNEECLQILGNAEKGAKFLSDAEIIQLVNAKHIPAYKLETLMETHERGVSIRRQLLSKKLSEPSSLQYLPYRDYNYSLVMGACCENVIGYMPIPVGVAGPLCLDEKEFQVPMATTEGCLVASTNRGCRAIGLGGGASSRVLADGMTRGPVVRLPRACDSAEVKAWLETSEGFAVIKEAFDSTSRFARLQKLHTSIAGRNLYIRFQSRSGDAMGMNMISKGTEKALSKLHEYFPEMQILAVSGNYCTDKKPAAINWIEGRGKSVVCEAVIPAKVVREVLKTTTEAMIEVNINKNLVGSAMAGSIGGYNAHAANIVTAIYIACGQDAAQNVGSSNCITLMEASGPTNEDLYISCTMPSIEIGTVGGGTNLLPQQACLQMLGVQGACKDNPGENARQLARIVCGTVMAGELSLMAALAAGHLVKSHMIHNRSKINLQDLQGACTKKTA
The experiment in a line: In vitro HMGR activity (Sigma kit). The assay is classed as biochemical. The following applies: 500 nanomolar; 100% = activity without inhibitor. On the procedure: Measurements were performed in triplicate. In the case of HMGR concentration measurements used for positive control with pravastatin was 500 nanomolar, while the concentration of pomegranate extract tested was 100 micrograms/ml.

The target in assay [2] is T2, alpha-amylase from pancreas of pig (Sus scrofa, UniProt P00690).
T2 construct: alpha-amylase from pancreas of pig; purchased Sigma; host or cells: pig pancreas
T2 sequence (P00690 16-511): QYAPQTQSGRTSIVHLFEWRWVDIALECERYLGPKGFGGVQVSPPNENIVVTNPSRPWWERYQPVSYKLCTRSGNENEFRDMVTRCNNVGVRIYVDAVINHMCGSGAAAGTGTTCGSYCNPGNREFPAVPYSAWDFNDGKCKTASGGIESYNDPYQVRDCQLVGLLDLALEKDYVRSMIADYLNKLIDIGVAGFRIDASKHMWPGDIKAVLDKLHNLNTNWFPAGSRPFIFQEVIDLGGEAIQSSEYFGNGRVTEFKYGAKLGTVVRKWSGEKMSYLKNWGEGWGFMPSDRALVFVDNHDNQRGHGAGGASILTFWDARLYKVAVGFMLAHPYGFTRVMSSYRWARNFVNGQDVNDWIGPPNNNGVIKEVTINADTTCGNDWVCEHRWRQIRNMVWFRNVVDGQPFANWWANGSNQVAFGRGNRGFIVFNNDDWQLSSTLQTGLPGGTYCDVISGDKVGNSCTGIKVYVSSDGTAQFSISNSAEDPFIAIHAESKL
The experiment in a line: In vitro inhibition of pig alpha-amylase. The assay is classed as biochemical. The following applies: 35 micrograms/ml; 100% = activity without inhibitor. How it is done: The enzymes tested were obtained from the following sources: alpha-amylase from pancreas of pig and alpha-glucosidase from Saccharomyces cerevisiae (both purchased from Sigma) and alpha-glucosidase from pig (isolated from pig intestine according to Menakshy et al. 2008).
Measures alpha-amylase activity and alpha-glucosidase were carried out according to procedures supplied by Sigma acquired with enzymes. Briefly, the alpha-glucosidase activity was determined spectrophotometrically at 400 nm, with p-Nitrophenyl α-D-Glucoside (PNP) as substrate and alpha-amylase activity was determined spectrophotometrically at 540 nm, with soluble potato starch as substrate. As a positive control measurements were performed with acarbose as inhibitor.
For measures with pig alpha-amylase the positive control measures were with acarbose at 35 micrograms/ml, while the concentration of pomegranate extract tested was 250 micrograms/ml.

For the compound `CC[C@H](C)C(=O)O[C@H]1C[C@H](O)C=C2C=C[C@H](C)[C@H](CC[C@@H](O)C[C@@H](O)CC(=O)O)[C@H]21` [pravastatine, pravastatin], the “% HMGR activity” value in assay [1] amounted to 9.7 ± 3.4%.

`C[C@H]1O[C@H](O[C@H]2[C@H](O)[C@@H](O)[C@@H](O[C@H]3[C@H](O)[C@@H](O)C(O)O[C@@H]3CO)O[C@@H]2CO)[C@H](O)[C@@H](O)[C@@H]1N[C@H]1C=C(CO)[C@@H](O)[C@H](O)[C@H]1O` (some centres unmarked) [acarbose]: the “% Pig alfa-amilase Activity” value in assay [2] turned out to be 41.2 ± 2.3%.
